From patent US10077464B2, “Micro-organism detection medium comprising at least one alkyl(thio)glycoside” (Biomérieux, priority 2012, dated 2018)

Assays:
[1] = tested on: P. aeruginosa and A. baumannii; assay: Detection of P. aeruginosa and A. baumannii, all strains of Example 2; type: cell-based
Protocol: Two stock solutions at 25 g/L of ALDOL™ 470-nonanoate (ALDOL 470-C9, developed by Biosynth AG, Rietlisstrasse 4,9422 Staad, Switzerland) and of ALDOL™ 495-nonanoate (ALDOL 495-C9, also developed by Biosynth AG, Rietlisstrasse 4,9422 Staad, Switzerland) are made in a DMSO-type organic solvent. Then a volume corresponding to a final concentration of enzyme substrates of 200 mg/L is added into flasks containing respectively: Tween 20 (final concentration in the medium of 6 g/L), and DM (final concentrations of 0.7, 2 and 6 g/L). The different flasks are vigorously agitated, then all of the contents are added into the supercooled agar media: TSA (trypticase soy agar) base.
Bacteria from the Applicant's collection were seeded on each of the aforementioned media in accordance with the three-dial technique from bacterial suspensions calibrated to 0.5 McF. The dishes were incubated for 24 h at 37° C. and the colonies formed were analysed visually. Thus, the colorations and the coloration intensities were recorded.

[2] = tested on: Microorganisms of the genus Salmonella; assay: Detection of salmonellae, all strains of Example 1; type: cell-based; settings: alkylglycoside in place of Tween 20, Example 1
Protocol: A stock solution of the enzyme substrate 5-bromo-6-chloro-3-indoxyl caprylate (magenta-C8) is made in a DMSO-type solvent. A volume of this stock solution which makes it possible to obtain a final substrate concentration of 360 mg/L is then added into flasks respectively containing Tween 20 (final concentration 6 g/L), n-octyl-β-D-glucopyranoside (OG) to final concentrations of 0.7, 2 and 6 g/L, and n-dodecyl-β-D-maltoside (DM) to the same concentrations. The different solutions are agitated and the volumes are introduced into supercooled agar media (chromID® Salmonella media).
Microorganisms of the genus Salmonella from the Applicant's collection were seeded on each of the aforementioned media in accordance with the three-dial technique from bacterial suspensions calibrated to 0.5 McF. The strains were selected for their low to average expression of esterase activity, giving low to average violet coloration intensities on the chromID® Salmonella medium marketed by bioMérieux (under the references 43621 and 43629).
The dishes were incubated for 24 h at 37° C. Then the colonies which formed were examined visually after 24 h of incubation. The coloration intensities were recorded.

| SMILES | Detection of the strains tested ([1]; replacement of the Tween 20 at 6 g/L by DM at the same concentration, whatever the enzyme substrate) | Detection of the esterase activity of the microorganisms ([1]; substitution of Tween 20 by DM, Example 2) | Esterase activity detection sensitivity in Salmonella [2] |
| --- | --- | --- | --- |
| CCCCCCCCCCCCO[C@@H]1O[C@H](CO)[C@@H](O[C@H]2O[C@H](CO)[C@@H](O)[C@H](O)[C@H]2O)[C@H](O)[C@H]1O [DM, n-dodecyl-β-D-maltoside] | detect all of the strains tested | improves the detection of the esterase activity of the microorganisms | improve the esterase activity detection sensitivity in Salmonella |
| CCCCCCCCO[C@@H]1O[C@H](CO)[C@@H](O)[C@H](O)[C@H]1O [OG, n-octyl-β-D-glucopyranoside] |  |  | improve the esterase activity detection sensitivity in Salmonella |
